Source: ChEMBL document CHEMBL3632477 (2015)

Target: Glucagon-like peptide 1 receptor (Homo sapiens, UniProt P43220)
Assay: Agonist activity at human GLP-1R expressed in CHO-K1 cells assessed as increase in cAMP level incubated for 30 mins
Format: functional, cell-based

Glucagon-like peptide 1 receptor, sequence (P43220 whole entry): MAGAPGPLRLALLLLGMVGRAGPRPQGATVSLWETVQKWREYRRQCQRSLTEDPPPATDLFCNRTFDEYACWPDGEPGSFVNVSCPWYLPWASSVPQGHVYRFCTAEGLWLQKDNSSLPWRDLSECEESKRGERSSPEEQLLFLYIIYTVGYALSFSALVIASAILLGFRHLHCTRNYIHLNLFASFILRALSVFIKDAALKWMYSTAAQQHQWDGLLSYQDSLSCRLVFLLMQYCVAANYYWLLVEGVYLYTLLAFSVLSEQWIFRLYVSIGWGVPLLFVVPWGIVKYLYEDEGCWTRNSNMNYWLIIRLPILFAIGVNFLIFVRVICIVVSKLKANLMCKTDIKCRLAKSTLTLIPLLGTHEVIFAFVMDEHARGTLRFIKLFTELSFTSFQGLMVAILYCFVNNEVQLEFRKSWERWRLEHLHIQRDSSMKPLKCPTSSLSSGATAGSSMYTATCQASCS

Structure (SMILES): CC[C@H](C)[C@@H]1NC(=O)[C@H](CCC(=O)O)NC(=O)[C@@H]2CCCN2C(=O)[C@H](Cc2cnc[nH]2)NC(=O)[C@H](CC(=O)O)NC(=O)[C@H](Cc2ccc(O)cc2)NC(=O)[C@H](CC(N)=O)NC(=O)[C@@H]2CSSC[C@@H]3NC(=O)CNC(=O)CNC(=O)CNC(=O)[C@H](C)NC(=O)[C@H](C)NC(=O)CNC(=O)CNC(=O)[C@H](CSSC[C@H](NC3=O)C(=O)N[C@@H](CO)C(=O)N[C@@H](CC(=O)O)C(=O)N3CCC[C@H]3C(=O)N[C@@H](CCCNC(=N)N)C(=O)N2)NC1=O
- EC50: 0.14 nM
